Measured values taken from patent publication US12583870B2, “Azaheteroaryl compound and application thereof” (SHANGHAI BLUERAY BIOPHARMA CO., LTD., priority 2019, dated 2026).

Legend:
[1] = target: T1, EED protein (His6-tagged full-length) binding to H3K27me3 polypeptide (Homo sapiens, UniProt O75530); experiment: AlphaScreen evaluation of blocking the binding of EED to H3K27Me3; settings: EED 60 nM, biotinylated H3K27me3 75 nM, 30 minutes incubation
T1 construct: His6-tagged full-length EED protein (441 amino acids)
T1 sequence (O75530 whole entry): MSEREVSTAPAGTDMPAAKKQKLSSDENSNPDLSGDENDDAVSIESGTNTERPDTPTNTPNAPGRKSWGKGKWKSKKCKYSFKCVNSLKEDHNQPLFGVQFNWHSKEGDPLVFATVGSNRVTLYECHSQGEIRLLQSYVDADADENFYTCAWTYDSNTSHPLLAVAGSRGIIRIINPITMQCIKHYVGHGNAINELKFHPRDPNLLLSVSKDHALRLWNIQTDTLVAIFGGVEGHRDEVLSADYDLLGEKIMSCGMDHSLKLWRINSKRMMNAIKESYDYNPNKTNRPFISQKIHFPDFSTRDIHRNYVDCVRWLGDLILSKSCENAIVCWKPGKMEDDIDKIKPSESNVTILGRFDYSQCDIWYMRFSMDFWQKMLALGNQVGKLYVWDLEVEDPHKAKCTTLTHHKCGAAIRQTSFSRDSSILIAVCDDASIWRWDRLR
Procedure: Firstly, compound solutions of different concentration gradients were prepared. Compound powder was dissolved in DMSO to prepare a mother liquor. 1.5 μl of the mother liquor of the compound was taken and added into 198.5 μl of a reaction buffer (25 mM HEPES (pH 8.0), 50 mM NaCl, 0.015% Tween 20, 0.5% BSA). The mixture was mixed uniformly. Then a 3-fold series dilution was carried out with the above-mentioned buffer containing 0.75% DMSO. 9 different test concentrations were provided for one same compound. 5 μL of compounds of different concentration gradients were taken and added into the ProxiPlate-384 Plus, White detection plate (PerkinElmer, 6008280) and two replicates in parallel were provided for each concentration gradient.
Secondly, a reaction for blocking the binding was carried out. The above-mentioned buffer was used to dilute His6-tagged full-length EED protein (441 amino acids) to 60 nM and biotinylated polypeptide fragment H3K27me3 (amino acids at positions 19-33) (Biotinylated-H3K27me3) to 75 nM. 5 μl of the polypeptide fragment at the concentration of 75 nM and 5 µl of the protein at the concentration of 60 nM were transferred to the detection wells containing the compound, respectively. The detection plate was sealed with the film and incubation was carried out at room temperature for 30 minutes.
Finally, the detection was carried out with the AlphaScreen method. Prior use, nickel chelate receptor beads and streptavidin donor beads (at the ratio of 1:1, Perkin Elmer, product number 6760619M) were mixed with the above-mentioned reaction buffer. Then 5 μl of the above-mentioned pre-mixed detection solution was added to each of the detection wells. The donor beads and receptor beads were both at a final concentration of 5 μg/mL. The detection plate was covered and sealed with tinfoil and placed in the dark at room temperature for 1 hour. The signal was read using the AlphaScreen detector on the Spectra max i3. AlphaScreen signals were standardlized based on the readings obtained from positive controls (maximum signal controls) and negative controls (minimum signal controls) to give the inhibition rates for compounds at different concentrations, and afterwards non-linear regression analysis was carried out using GraphPad Prism 5, inhibition curves were made based on the Dose-Response equation of Y=Bottom+(Top−Bottom)/(1+10^((Log IC50−X)*HillSlope)) and the IC50 values of each compound were obtained. […]

[2] = test system: trimethylation level of histone H3K27 in G401 cells; experiment: ELISA (H3K27 trimethylation) analysis in G401 cells; type: cell-based; settings: Homo sapiens, G-401, 72 hours, H3K27me3 standardized to H3
Procedure, shortened: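 Cells exposed 72 h to 10-point 3-fold dilutions, top 10 μM, 0.5% final DMSO. Acid-extracted histones assayed by ELISA (ECL) for H3K27me3, normalized to total H3 and to DMSO control; IC50 from dose-response fit.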

KARPAS-422 cells = experiment: Cell proliferation analysis, KARPAS-422, 13 days, CellTiter-Glo; type: cell-based; settings: Homo sapiens, 312 h
Procedure, shortened: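 KARPAS-422 cells were treated with PRC2 inhibitors over 9 three-fold dilutions from 10 μM top (0.5% DMSO, duplicates) in RPMI-1640 with 15% FBS at 37 °C. Every 3–4 days cells were counted and reseeded at 1×10^4/well with fresh compound. Viability was read by CellTiter-Glo luminescence on day 13.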

| Structure (SMILES) | IC50 [1] | IC50 [2] | IC50 (KARPAS-422 cells) |
| --- | --- | --- | --- |
| Cc1cnc2c(-c3cnc(NCc4c(F)ccc5c4CCO5)n4cnnc34)cccn12 [N-((5-fluoro-2,3-dihydrobenzofuran-4-yl)methyl)-8-(3-methylimidazo[1,2-a]pyridin-8-yl)-[1,2,4]triazolo[4,3-c]pyrimidin-5-amine] | 0.0046 µM | 0.0016 µM | 0.0014 µM |
| Cc1ccc(-c2cnc(NCc3c(F)ccc4c3CCO4)n3cnnc23)c2ncc(CC(=O)O)n12 [2-(8-(5-(((5-fluoro-2,3-dihydrobenzofuran-4-yl)methyl)amino)-[1,2,4]triazolo[4,3-c]pyrimidin-8-yl)-5-methylimidazo[1,2-a]pyridin-3-yl)acetic acid] | 0.0054 µM | 0.004 µM | 0.0047 µM |
| CC1=C(F)c2cc(-c3cnc(NCc4c(F)ccc5c4CCO5)n4cnnc34)ccc2S1(=O)=O [3-fluoro-5-(5-(((5-fluoro-2,3-dihydrobenzofuran-4-yl)methyl)amino)-[1,2,4]triazolo[4,3-c]pyrimidin-8-yl)-2-methylbenzo[b]thiophene 1,1-dioxide] | 0.0026 µM | 0.0073 µM | 0.0049 µM |
| Fc1ccc2c(c1CNc1ncc(-c3cccc4ncoc34)c3nncn13)CCO2 [8-(benzo[d]oxazol-7-yl)-N-((5-fluoro-2,3-dihydrobenzofuran-4-yl)methyl)-[1,2,4]triazolo[4,3-c]pyrimidin-5-amine] | 0.0049 µM | 0.013 µM | 0.0136 µM |
| Fc1cc(-c2cnc(NCc3c(F)ccc4c3CCO4)n3cnnc23)c2nc(C(F)(F)F)cn2c1 [N-((5-fluoro-2,3-dihydrobenzofuran-4-yl)methyl)-8-(6-fluoro-2-(trifluoromethyl)imidazo[1,2-a]pyridin-8-yl)-[11,2,4]triazolo[4,3-c]pyrimidin-5-amine] | 0.0023 µM | 0.0171 µM | 0.0095 µM |
| NC(=O)c1cnc2c(-c3cnc(NCc4c(F)ccc5c4CCO5)n4cnnc34)cccn12 [8-(5-(((5-fluoro-2,3-dihydrobenzofuran-4-yl)methyl)amino)-[1,2,4]triazolo[4,3-c]pyrimidin-8-yl)imidazo[1,2-a]pyridine-3-carboxamide] | 0.0035 µM | 0.0041 µM | 0.0037 µM |
| Fc1ccc2c(c1CNc1ncc(-c3cccn4ccnc34)c3nncn13)[C@H]1C[C@H]1O2 [N-(((1aR,6bR)-5-fluoro-1a,6b-dihydro-1H-cyclopropa[b]benzofuran-6-yl)methyl)-8-(imidazo[1,2-a]pyridin-8-yl)-[1,2,4]triazolo[4,3-c]pyrimidin-5-amine] | 0.0035 µM | 0.001 µM | 0.0006 µM |
| CC1=Cc2cc(-c3cnc(NCc4c(F)ccc5c4[C@H]4C[C@H]4O5)n4cnnc34)ccc2S1(=O)=O [5-(5-((((1aR,6bR)-5-fluoro-1a,6b-dihydro-1H-cyclopropa[b]benzofuran-6-yl)methyl)amino)-[1,2,4]triazolo[4,3-c]pyrimidin-8-yl)-2-methylbenzo[b]thiophene 1,1-dioxide] | 0.0049 µM | 0.0041 µM | 0.0125 µM |
| Fc1cc(-c2cnc(NCc3c(F)ccc4c3CCO4)n3cnnc23)c2ncc(F)n2c1 [8-(3,6-difluoroimidazo[1,2-a]pyridin-8-yl)-N-((5-fluoro-2,3-dihydrobenzofuran-4-yl)methyl)-[1,2,4]triazolo[4,3-c]pyrimidin-5-amine] | 0.0052 µM | 0.0077 µM | 0.0075 µM |
| COC(=O)Cc1cnc2c(-c3cnc(NCc4c(F)ccc5c4CCO5)n4cnnc34)ccc(C)n12 [Methyl 2-(8-(5-(((5-fluoro-2,3-dihydrobenzofuran-4-yl)methyl)amino)-[1,2,4]triazolo[4,3-c]pyrimidin-8-yl)-5-methylimidazo[1,2-a]pyridin-3-yl)acetate] | 0.0062 µM | 0.0038 µM | 0.001 µM |
| O=S1(=O)C=Cc2cc(-c3cnc(NCc4c(F)ccc5c4[C@@H]4C[C@@H]4O5)n4cnnc34)ccc21 [5-(5-((((1aS,6bS)-5-fluoro-1a,6b-dihydro-1H-cyclopropa[b]benzofuran-6-yl)methyl)amino)-[1,2,4]triazolo[4,3-c]pyrimidin-8-yl)benzo[b]thiophene 1,1-dioxide] | 0.015 µM | 0.016 µM | 0.0038 µM |
| CC(=O)c1c(C)nc2c(-c3cnc(NCc4c(F)ccc5c4CCO5)n4cnnc34)cccn12 [1-(8-(5-(((5-fluoro-2,3-dihydrobenzofuran-4-yl)methyl)amino)-[1,2,4]triazolo[4,3-c]pyrimidin-8-yl)-2-methylimidazo[1,2-a]pyridin-3-yl)ethan-1-one] | 0.0048 µM | 0.0025 µM | 0.0016 µM |
| Cc1cnc2c(-c3cnc(NCc4c(F)ccc5c4CCO5)n4cnnc34)cc(F)cn12 [N-((5-fluoro-2,3-dihydrobenzofuran-4-yl)methyl)-8-(6-fluoro-3-methylimidazo[1,2-a]pyridin-8-yl)-[1,2,4]triazolo[4,3-c]pyrimidin-5-amine] | 0.0074 µM | 0.0057 µM | 0.004 µM |
| Fc1ccc2c(c1CNc1ncc(-c3ccn4ccnc4c3)c3nncn13)CCO2 [N-((5-fluoro-2,3-dihydrobenzofuran-4-yl)methyl)-8-(imidazo[1,2-a]pyridin-7-yl)-[1,2,4]triazolo[4,3-c]pyrimidin-5-amine] | 0.015 µM | 0.0056 µM | 0.0165 µM |
| Cc1cc2c(cc1-c1cnc(NCc3c(F)ccc4c3CCO4)n3cnnc13)C=CS2(=O)=O [5-(5-(((5-fluoro-2,3-dihydrobenzofuran-4-yl)methyl)amino)-[1,2,4]triazolo[4,3-c]pyrimidin-8-yl)-6-methylbenzo[b]thiophene 1,1-dioxide] | 0.0041 µM | 0.0009 µM | 0.0005 µM |
| O=S1(=O)C=Cc2cc(-c3cnc(NCc4c(F)ccc5c4CCO5)n4cnnc34)cc(F)c21 [7-fluoro-5-(5-(((5-fluoro-2,3-dihydrobenzofuran-4-yl)methyl)amino)-[1,2,4]triazolo[4,3-c]pyrimidin-8-yl)benzo[b]thiophene 1,1-dioxide] | 0.0045 µM | 0.0028 µM | 0.0005 µM |
| O=S1(=O)C=c2ccc(-c3cnc(NCc4c(F)ccc5c4CCO5)n4cnnc34)cc2=C1 [5-(5-(((5-fluoro-2,3-dihydrobenzofuran-4-yl)methyl)amino)-[1,2,4]triazolo[4,3-c]pyrimidin-8-yl)benzo[c]thiophene 2,2-dioxide] | 0.0049 µM | 0.0003 µM | 0.0004 µM |
| Cc1ccc(-c2cnc(NCc3c(F)ccc4c3CCO4)n3cnnc23)c2ncc(C)n12 [8-(3,5-dimethylimidazo[1,2-a]pyridin-8-yl)-N-((5-fluoro-2,3-dihydrobenzofuran-4-yl)methyl)-[1,2,4]triazolo[4,3-c]pyrimidin-5-amine] | 0.0051 µM | 0.0027 µM | 0.0019 µM |
| CC1=C(C)S(=O)(=O)c2c(F)cc(-c3cnc(NCc4c(F)ccc5c4CCO5)n4cnnc34)cc21 [7-fluoro-5-(5-(((5-fluoro-2,3-dihydrobenzofuran-4-yl)methyl)amino)-[1,2,4]triazolo[4,3-c]pyrimidin-8-yl)-2,3-dimethylbenzo[b]thiophene 1,1-dioxide] | 0.002 µM | 0.014 µM | 0.0087 µM |
| COC(=O)c1ccc(-c2cnc(NCc3c(F)ccc4c3CCO4)n3cnnc23)c2nccn12 [Methyl 8-(5-(((5-fluoro-2,3-dihydrobenzofuran-4-yl)methyl)amino)-[1,2,4]triazolo[4,3-c]pyrimidin-8-yl)imidazo[1,2-a]pyridine-5-carboxylate] | 0.008 µM | 0.0035 µM | 0.0051 µM |
| Fc1ccc2c(c1CNc1ncc(-c3cnc4nccn4c3)c3nncn13)CCO2 [N-((5-fluoro-2,3-dihydrobenzofuran-4-yl)methyl)-8-(imidazo[1,2-a]pyrimidin-6-yl)-[1,2,4]triazolo[4,3-c]pyrimidin-5-amine] | 0.0049 µM | 0.0129 µM |  |
